Data on 28 compounds can be found in US9630922B2, “3-spiro-7-hydroxamic acid tetralins as HDAC inhibitors” (Forma Therapeutics, Inc., priority 2015, dated 2017).

This assay concerns the target T1, HDAC6 (Homo sapiens, UniProt Q9UBN7).
T1 construct: Full length human recombinant HDAC6 protein was expressed in baculoviral system; made in house; host or cells: baculoviral system
T1 sequence (Q9UBN7 1-1215): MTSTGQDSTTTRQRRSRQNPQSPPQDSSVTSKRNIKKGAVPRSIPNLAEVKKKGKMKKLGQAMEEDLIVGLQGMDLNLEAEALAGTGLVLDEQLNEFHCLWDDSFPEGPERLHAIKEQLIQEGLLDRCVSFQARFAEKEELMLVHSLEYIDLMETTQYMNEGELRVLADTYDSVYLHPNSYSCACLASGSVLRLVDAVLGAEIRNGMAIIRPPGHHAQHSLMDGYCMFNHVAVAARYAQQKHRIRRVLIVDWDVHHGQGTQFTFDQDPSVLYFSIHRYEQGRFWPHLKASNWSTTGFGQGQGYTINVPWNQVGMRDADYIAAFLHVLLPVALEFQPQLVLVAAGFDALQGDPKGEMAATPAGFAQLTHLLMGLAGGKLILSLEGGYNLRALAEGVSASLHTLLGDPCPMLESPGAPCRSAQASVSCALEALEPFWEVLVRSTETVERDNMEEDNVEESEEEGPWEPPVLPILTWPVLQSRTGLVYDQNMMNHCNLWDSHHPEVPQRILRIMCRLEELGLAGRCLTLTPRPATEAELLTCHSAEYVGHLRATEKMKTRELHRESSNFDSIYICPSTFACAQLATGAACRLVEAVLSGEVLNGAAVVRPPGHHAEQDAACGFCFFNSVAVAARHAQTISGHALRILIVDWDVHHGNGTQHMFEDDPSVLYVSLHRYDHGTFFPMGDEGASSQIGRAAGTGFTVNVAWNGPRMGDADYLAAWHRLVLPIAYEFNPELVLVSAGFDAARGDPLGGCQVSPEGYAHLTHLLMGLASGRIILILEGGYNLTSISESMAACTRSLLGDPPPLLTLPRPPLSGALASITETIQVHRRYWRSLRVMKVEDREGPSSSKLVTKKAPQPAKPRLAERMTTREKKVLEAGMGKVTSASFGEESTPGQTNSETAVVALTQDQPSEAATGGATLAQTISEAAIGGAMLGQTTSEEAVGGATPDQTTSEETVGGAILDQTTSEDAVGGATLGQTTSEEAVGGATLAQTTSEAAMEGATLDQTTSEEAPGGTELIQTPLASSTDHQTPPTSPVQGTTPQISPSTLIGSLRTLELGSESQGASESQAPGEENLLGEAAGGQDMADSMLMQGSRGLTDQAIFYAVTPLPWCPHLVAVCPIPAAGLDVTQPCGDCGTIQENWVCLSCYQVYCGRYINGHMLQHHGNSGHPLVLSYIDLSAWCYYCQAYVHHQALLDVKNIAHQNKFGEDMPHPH
The assay is described as follows: In vitro Histone Deacetylase Assay (enzymatic HDAC6 electrophoretic mobility shift assay). Particulars: full length human recombinant HDAC6, 1 nM enzyme, 2 μM peptide substrate RHKK(Ac)-NH2, 25° C.; read-out: HDAC6 activity range. It is filed as biochemical. The procedure, abridged:
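Full-length recombinant human HDAC6 (baculovirus-expressed, 1 nM) was incubated at 25 °C with 2 μM fluorescent RHKK(Ac)-NH2 peptide in HEPES pH 7.5, KCl, BSA, Triton X-100 and 1% DMSO, then SDS-quenched. Substrate and product were separated by microfluidic mobility shift, and IC50 came from 4-parameter fits of 12-point, 3-fold dilution curves.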
As for `O=C(NO)c1ccc2c(c1)CC[C@]1(CCN(Cc3ccccc3F)C1=O)C2` [Compound I-57, (R)-1′-(2-fluorobenzyl)-N-hydroxy-2′-oxo-3,4-dihydro-1H-spiro[naphthalene-2,3′-pyrrolidine]-6-carboxamide], the IC50 is not above 100 nM. For the compound `O=C(NO)c1ccc2c(c1)CC[C@]1(CCN(Cc3ccccn3)C1=O)C2` [Compound I-52, (R)-N-hydroxy-2′-oxo-1′-(pyridin-2-ylmethyl)-3,4-dihydro-1H-spiro[naphthalene-2,3′-pyrrolidine]-6-carboxamide], the IC50 was not above 100 nM. For `O=C(NO)c1ccc2c(c1)CC[C@]1(CCN(Cc3ccccc3OC(F)(F)F)C1=O)C2` [Compound I-41, (R)-N-hydroxy-2′-oxo-1′-(2-(trifluoromethoxy)benzyl)-3,4-dihydro-1H-spiro[naphthalene-2,3′-pyrrolidine]-6-carboxamide] the value was not above 100 nM; for `O=C(NO)c1ccc2c(c1)CC[C@@]1(CCN(Cc3ccc4ccccc4c3)C1=O)C2` [Compound I-86, (S)-N-hydroxy-1′-(naphthalen-2-ylmethyl)-2′-oxo-3,4-dihydro-1H-spiro[naphthalene-2,3′-pyrrolidine]-6-carboxamide], not above 100 nM. For `O=C(NO)c1ccc2c(c1)CC[C@]1(CCN(Cc3c(Cl)cccc3Cl)C1=O)C2` [Compound I-49, (R)-1′-(2,6-dichlorobenzyl)-N-hydroxy-2′-oxo-3,4-dihydro-1H-spiro[naphthalene-2,3′-pyrrolidine]-6-carboxamide] the value was not above 100 nM; for `O=C(NO)c1ccc2c(c1)CC[C@]1(CCN(c3cnc4ccccc4c3)C1=O)C2` [Compound I-95, (R)-N-hydroxy-2′-oxo-1′-(quinolin-3-yl)-3,4-dihydro-1H-spiro[naphthalene-2,3′-pyrrolidine]-6-carboxamide], not above 100 nM. Regarding `O=C(NO)c1ccc2c(c1)CC[C@@]1(CCN(Cc3cccc(F)c3)C1=O)C2` [Compound I-79, (S)-1′-(3-fluorobenzyl)-N-hydroxy-2′-oxo-3,4-dihydro-1H-spiro[naphthalene-2,3′-pyrrolidine]-6-carboxamide], the IC50 is not above 100 nM. For `O=C(NO)c1ccc2c(c1)CCC1(CCNC1=O)S2(=O)=O` (stereo not shown) [Compound I-243, N-hydroxy-2-oxospiro[pyrrolidine-3,2′-thiochromane]-6′-carboxamide 1′,1′-dioxide] the value was more than 500 nM.

On to `COc1ncccc1N1CC[C@@]2(CCc3cc(C(=O)NO)ccc3C2)C1=O` [Compound I-146, (S)-N-hydroxy-1′-(2-methoxypyridin-3-yl)-2′-oxo-3,4-dihydro-1H-spiro[naphthalene-2,3′-pyrrolidine]-6-carboxamide], for which the IC50 was not above 100 nM. For `COc1ccc(S(=O)(=O)N2CCC3(CCc4cc(C(=O)NO)ccc4O3)CC2)cc1` [II-5, N-hydroxy-1′-((4-methoxyphenyl)sulfonyl)spiro[chromane-2,4′-piperidine]-6-carboxamide] the value was more than 500 nM; for `O=C(NO)c1ccc2c(c1)CC[C@@]1(CCCN(c3ccccc3)C1=O)C2` (single isomer, unassigned) [Compound I-181], not above 100 nM; for `O=C(NO)c1ccc2c(c1)CC[C@@]1(CCN(c3ccncc3Cl)C1=O)C2` [Compound I-141, (S)-1′-(3-chloropyridin-4-yl)-N-hydroxy-2′-oxo-3,4-dihydro-1H-spiro[naphthalene-2,3′-pyrrolidine]-6-carboxamide], not above 100 nM.

`CCN1CC2(CCc3cc(C(=O)NO)ccc3C2)CC1=O` (single isomer, unassigned) [Compound I-211]: the IC50 was not above 100 nM. `CC(C)(C)c1ccc(CN2CC[C@@]3(CCc4cc(C(=O)NO)ccc4C3)C2=O)cc1` [Compound I-85, (S)-1′-(4-(tert-butyl)benzyl)-N-hydroxy-2′-oxo-3,4-dihydro-1H-spiro[naphthalene-2,3′-pyrrolidine]-6-carboxamide]: the IC50 was in the range of 100 to 500 nM.

In the case of `O=C(NO)c1ccc2c(c1)CC[C@]1(CCN(Cc3ccc4ccccc4c3)C1=O)C2` [Compound I-58, (R)-N-hydroxy-1′-(naphthalen-2-ylmethyl)-2′-oxo-3,4-dihydro-1H-spiro[naphthalene-2,3′-pyrrolidine]-6-carboxamide], the IC50 is not above 100 nM.

Turning to `CN1CC[C@]2(CCc3cc(C(=O)NO)ccc3C2)C1=O` [Compound I-104, (R)-N-hydroxy-1′-methyl-2′-oxo-3,4-dihydro-1H-spiro[naphthalene-2,3′-pyrrolidine]-6-carboxamide], the IC50 is not above 100 nM.

Consider `O=C(NO)c1ccc2c(c1)CC[C@]1(CCN(Cc3ccccc3)C1=O)C2` [Compound I-50, (R)-1′-benzyl-N-hydroxy-2′-oxo-3,4-dihydro-1H-spiro[naphthalene-2,3′-pyrrolidine]-6-carboxamide], for which the IC50 is not above 100 nM. For `O=C(NO)c1ccc2c(c1)CC[C@]1(CCN(Cc3cccc(F)c3)C1=O)C2` [Compound I-53, (R)-1′-(3-fluorobenzyl)-N-hydroxy-2′-oxo-3,4-dihydro-1H-spiro[naphthalene-2,3′-pyrrolidine]-6-carboxamide] the value was not above 100 nM; for `O=C(NO)c1ccc2c(c1)CCC1(CCN(Cc3ccc(Cl)c(Cl)c3)C1=O)C2` (stereo not shown) [Compound I-6, 1′-(3,4-dichlorobenzyl)-N-hydroxy-2′-oxo-3,4-dihydro-1H-spiro[naphthalene-2,3′-pyrrolidine]-6-carboxamide], not above 100 nM; for `O=C(NO)c1ccc2c(c1)CC[C@@]1(CCN(CC3COC3)C1=O)C2` [Compound I-122, (S)-N-hydroxy-1′-(oxetan-3-ylmethyl)-2′-oxo-3,4-dihydro-1H-spiro[naphthalene-2,3′-pyrrolidine]-6-carboxamide], 100 to 500 nM.

Take `O=C(NO)c1ccc2c(c1)CC[C@@]1(CCN(c3ccc(Cl)cn3)C1=O)C2` [Compound I-130, (S)-1′-(5-chloropyridin-2-yl)-N-hydroxy-2′-oxo-3,4-dihydro-1H-spiro[naphthalene-2,3′-pyrrolidine]-6-carboxamide]: the IC50 is not above 100 nM. As to `CC(C)c1ccc(N2CC[C@]3(CCc4cc(C(=O)NO)ccc4C3)C2=O)cn1` [Compound I-94, (R)-N-hydroxy-1′-(6-isopropylpyridin-3-yl)-2′-oxo-3,4-dihydro-1H-spiro[naphthalene-2,3′-pyrrolidine]-6-carboxamide], the IC50 was not above 100 nM.

Regarding `COCCCN1CC2(CCc3cc(C(=O)NO)ccc3C2)CC1=O` (single isomer, unassigned) [Compound I-222], the IC50 was not above 100 nM. In the case of `O=C(NO)c1ccc2c(c1)CC[C@]1(CCCN(C3CCCC3)C1=O)C2` [Compound I-200, (S)-1′-cyclopentyl-N-hydroxy-2′-oxo-3,4-dihydro-1H-spiro[naphthalene-2,3′-piperidine]-6-carboxamide], the IC50 was not above 100 nM. Regarding `O=C(NO)c1ccc2c(c1)CC[C@]1(CCN(C3CC3)C1=O)C2` [Compound I-109, (R)-1′-cyclopropyl-N-hydroxy-2′-oxo-3,4-dihydro-1H-spiro[naphthalene-2,3′-pyrrolidine]-6-carboxamide], the IC50 was not above 100 nM. Regarding `COc1cccc(CN2CC[C@]3(CCc4cc(C(=O)NO)ccc4C3)C2=O)c1` [Compound I-51, (R)-N-hydroxy-1′-(3-methoxybenzyl)-2′-oxo-3,4-dihydro-1H-spiro[naphthalene-2,3′-pyrrolidine]-6-carboxamide], the IC50 is not above 100 nM.

`O=C(NO)c1ccc2c(c1)CCC1(CCN(Cc3ccncc3)C1=O)S2(=O)=O` (stereo not shown) [Compound I-242, N-hydroxy-2-oxo-1-(pyridin-4-ylmethyl)spiro[pyrrolidine-3,2′-thiochromane]-6′-carboxamide 1′,1′-dioxide]: the IC50 was more than 500 nM. For `O=C(NO)c1ccc2c(c1)CC[C@@]1(CCN(Cc3ccccc3OC(F)(F)F)C1=O)C2` [Compound I-69, (S)-N-hydroxy-2′-oxo-1′-(2-(trifluoromethoxy)benzyl)-3,4-dihydro-1H-spiro[naphthalene-2,3′-pyrrolidine]-6-carboxamide] the value was 100 to 500 nM.
